system: PANC-1; test: Cytotoxicity against human PANC1 cells in nutrient deprived medium after 24 hrs; format: functional

Row | Structure (SMILES) | CD100
1 | COc1cc(O)ccc1[C@H]1COc2cc(O)ccc2C1 | >100 µM
2 | O=C1c2ccc(O)cc2O[C@H](c2ccccc2)[C@H]1O | >100 µM
3 | O=C(c1ccc(O)cc1O)[C@@H](O)Cc1ccc(O)cc1 | >100 µM
4 | C=C[C@@H](c1ccccc1)c1cc(O)c(OC)cc1OC | >100 µM
5 | COc1ccc([C@H]2COc3cc(O)ccc3C2)c(O)c1 | >100 µM
6 | COc1ccc([C@H]2COc3cc(O)ccc3C2=O)c(O)c1 | >100 µM
7 | COc1ccc2c(c1O)O[C@@H]1c3ccc(O)cc3OC[C@H]21 | 50 µM
8 | COc1ccc2c(C)c(-c3ccc(O)cc3O)oc2c1 | 50 µM
9 | COc1ccc2c(c1)O[C@H]1c3ccc(O)c(O)c3OC[C@@H]21 | 25 µM
10 | COc1cc(O)ccc1C(=O)/C=C/c1ccc(O)cc1 | >100 µM
11 | COc1ccc([C@H]2COc3cc(O)ccc3C2=O)c(OC)c1O | >100 µM
12 | O=C1c2ccc(O)cc2OC1(O)Cc1ccc(O)cc1 (centres undefined) | >100 µM
13 | COc1cc2c(cc1O)O[C@H](c1ccccc1)[C@@H](O)C2=O | >100 µM
14 | COc1ccc([C@H]2COc3cc(OC)ccc3C2)c(O)c1 | 25 µM
15 | CCO[C@@]12COc3cc(O)ccc3[C@@H]1Oc1cc(OC)ccc12 | >100 µM
16 | O=C1C[C@@H](c2ccccc2)Oc2cc(O)c(O)c(O)c21 | >100 µM
17 | COc1cc2c(cc1O)O[C@H](c1ccccc1)CC2=O | 50 µM
18 | O=C1C[C@@H](c2ccccc2)Oc2cc(O)ccc21 | >100 µM
19 | COc1ccc(-c2coc3cc(O)cc(O)c3c2=O)c(O)c1 | >100 µM
20 | COc1ccc([C@H]2COc3cc(O)cc(O)c3C2=O)c(O)c1 | >100 µM
21 | COc1ccc2c(c1)O[C@H]1c3ccc(O)c(OC)c3OC[C@@H]21 | >100 µM
22 | COc1ccc2c(c1)O[C@@H]1c3ccc(O)cc3OC[C@H]21 | 50 µM

Row | Structure (SMILES) | CD100
23 | O=C(/C=C/c1ccccc1)c1ccc(O)cc1O [2',4'-DIHYDROXYCHALCONE] | >100 µM
24 | COc1ccc([C@H]2OC[C@H]3[C@@H]2CO[C@@H]3c2ccc(OC)c(OC)c2)cc1OC [(+)-EUDESMIN] | >100 µM
25 | COc1cc([C@@H]2OC[C@@H]3[C@H]2CO[C@H]3c2ccc(O)c(OC)c2)ccc1O [(+)-PINORESINOL] | >100 µM
26 | COc1c(O)cc2oc(-c3ccccc3)c(O)c(=O)c2c1O [ALNUSIN] | >100 µM
27 | COc1c(O)cc2c(c1O)C(=O)[C@H](O)[C@@H](c1ccccc1)O2 [ALNUSTINOL] | >100 µM
28 | COc1cc(C[C@H]2C(=O)OC[C@@H]2Cc2ccc(OC)c(OC)c2)ccc1O [ARCTIGENIN] | 1 µM
29 | COc1ccc(-c2coc3cc(O)cc(O)c3c2=O)cc1 [BIOCHANIN] | >100 µM
30 | COc1ccc(-c2coc3cc(O)ccc3c2=O)cc1O [CALYCOSIN] | >100 µM
31 | O=c1c(-c2ccc(O)cc2)coc2cc(O)ccc12 [DAIDZEIN] | >100 µM
32 | COc1c(O)cc2c(c1O)C(=O)C[C@@H](c1ccccc1)O2 [DIHYDROOROXYLIN A] | >100 µM
33 | O=c1[nH]cc(F)c(=O)[nH]1 [FLUOROURACIL] | >100 µM
34 | COc1ccc(-c2coc3cc(O)ccc3c2=O)cc1 [FORMONONETIN] | >100 µM
35 | O=C1c2ccc(O)cc2O[C@H](c2ccc(O)cc2)[C@H]1O [GARBANZOL] | >100 µM
36 | O=C(/C=C/c1ccc(O)cc1)c1ccc(O)cc1O [ISOLIQUIRITIGENIN] | >100 µM
37 | O=C1C[C@@H](c2ccc(O)cc2)Oc2cc(O)ccc21 [LIQUIRTIGENIN] | >100 µM
38 | COc1ccc([C@H]2COc3cc(O)ccc3C2)c(OC)c1O [MUCRONULATOL] | >100 µM
39 | O=C1C[C@@H](c2ccc(O)cc2)Oc2cc(O)cc(O)c21 [NARINGENIN] | >100 µM
40 | CC(=O)O[C@H]1C(=O)[C@@]2(C)[C@H]([C@H](OC(=O)c3ccccc3)[C@]3(O)C[C@H](OC(=O)[C@H](O)[C@@H](NC(=O)c4ccccc4)c4ccccc4)C(C)=C1C3(C)C)[C@]1(OC(C)=O)CO[C@@H]1C[C@@H]2O [PACLITAXEL] | >100 µM
41 | COc1ccc(-c2coc3cc(O)cc(O)c3c2=O)cc1O [PRATENSEIN] | >100 µM
42 | COc1cc2c(cc1OC)[C@@H]1COc3cc(O)ccc3[C@@H]1O2 [SECUNDIFLOROL I] | >100 µM
43 | COc1cc([C@H]2OC[C@H]3[C@@H]2CO[C@@H]3c2cc(OC)c(O)c(OC)c2)cc(OC)c1O [SYRINGARESINOL] | >100 µM
44 | COc1ccc(-c2coc3cc(O)ccc3c2=O)c(O)c1 [XENOGNOSIN B] | >100 µM
